Data: patent US8129367B2, “Compounds for the treatment of Hepatitis C” (Bristol-Myers Squibb Company, priority 2007, dated 2012)

Legend:
[1] = biological target: T1, HCV NS5B (Hepatitis C virus genotype 1b, UniProt Q9WMX2); assay: HCV NS5B RdRp enzyme assay; assay type: biochemical; settings: HCV NS5B RdRp genotype 1b enzyme
T1 construct: The protein was expressed with an 18 amino acid C-terminal truncation to enhance the solubility; made in house; host or cells: E. coli BL21(DE3)
Experimental: HCV NS5B RdRp cloning, expression, and purification. The cDNA encoding the NS5B protein of HCV, genotype 1b, was cloned into the pET21a expression vector. The protein was expressed with an 18 amino acid C-terminal truncation to enhance the solubility. The E. coli competent cell line BL21(DE3) was used for expression of the protein. Cultures were grown at 37° C. for ˜4 hours until the cultures reached an optical density of 2.0 at 600 nm. The cultures were cooled to 20° C. and induced with 1 mM IPTG. Fresh ampicillin was added to a final concentration of 50 μg/ml and the cells were grown overnight at 20° C.
Cell pellets (3 L) were lysed for purification to yield 15-24 mgs of purified NS5B. The lysis buffer consisted of 20 mM Tris-HCl, pH 7.4, 500 mM NaCl, 0.5% triton X-100, 1 mM DTT, 1 mM EDTA, 20% glycerol, 0.5 mg/ml lysozyme, 10 mM MgCl2, 15 ug/ml deoxyribonuclease I, and Complete™ protease inhibitor tablets (Roche). After addition of the lysis buffer, frozen cell pellets were resuspended using a tissue homogenizer. To reduce the viscosity of the sample, aliquots of the lysate were sonicated on ice using a microtip attached to a Branson sonicator. The sonicated lysate was centrifuged at 100,000×g for 1 hr at 4° C. and filtered through a 0.2 μm filter unit (Corning).
The protein was purified using two sequential chromatography steps: Heparin sepharose CL-6B and polyU sepharose 4B (Pharmacia). The chromatography buffers were identical to the lysis buffer but contained no lysozyme, deoxyribonuclease I, MgCl2 or protease inhibitor and the NaCl concentration of the buffer was adjusted according to the requirements for charging the protein onto the column. Each column was eluted with a NaCl gradient which varied in length from 5-50 column volumes depending on the column type. After the final chromatography step, the resulting purity of the enzyme is >90% based on SDS-PAGE analysis. The enzyme was aliquoted and stored at −80° C.
Standard HCV NS5B RdRp enzyme assay. HCV RdRp genotype 1b assays were run in a final volume of 60 μl in 96 well plates (Corning 3600). The assay buffer is composed of 20 mM Hepes, pH 7.5, 2.5 mM KCl, 2.5 mM MgCl2, 1 mM DTT, 1.6 U RNAse inhibitor (Promega N2515), 0.01 mg/ml BSA (Sigma B6917), and 2% glycerol. All compounds were serially diluted (3-fold) in DMSO and diluted further in water such that the final concentration of DMSO in the assay was 2%. HCV RdRp genotype 1b enzyme was used at a final concentration of 28 nM. A polyA template was used at 6 nM, and a biotinylated oligo-dT12 primer was used at 180 nM final concentration. Template was obtained commercially (Amersham 27-4110). Biotinylated primer was prepared by Sigma Genosys. 3H-UTP was used at 0.6 μCi (0.29 μM total UTP). Reactions were initiated by the addition of enzyme, incubated at 30° C. for 60 min, and stopped by adding 25 μl of 50 mM EDTA containing SPA beads (4 μg/μl, Amersham RPNQ 0007). Plates were read on a Packard Top Count NXT after >1 hr incubation at room temperature.
Modified HCV NS5B RdRp enzyme assay. A modified enzyme assay was performed essentially as described for the standard enzyme assay except for the following: The biotinylated oligo dT12 primer was precaptured on streptavidin-coated SPA beads by mixing primer and beads in assay buffer and incubating at room temperature for one hour. Unbound primer was removed after centrifugation. The primer-bound beads were resuspended in 20 mM Hepes buffer, pH 7.5 and used in the assay at final concentrations of 20 nM primer and 0.67 μg/μl beads. Order of addition in the assay: enzyme (1.75 nM) was added to diluted compound followed by the addition of a mixture of template (0.36 nM), 3H-UTP (0.6 μCi, 0.29 μM), and primer-bound beads, to initiate the reaction; concentrations given are final. Reactions were allowed to proceed for 4 hours at 30° C.
IC50 values for compounds were determined using seven different [I]. […]

[2] = tested on: HCV replicon cells; assay: HCV replicon FRET / luciferase assay; assay type: cell-based; settings: Hepatitis C virus; 50% reduction in FRET or luciferase activity in HCV replicon cells
Experimental: FRET Assay Preparation. The HCV FRET screening assay was performed in 96-well cell culture plates. The FRET peptide (Anaspec, Inc.) (Taliani et al., Anal. Biochem. 1996, 240, 60-67) contains a fluorescence donor, EDANS, near one end of the peptide and an acceptor, DABCYL, near the other end. The fluorescence of the peptide is quenched by […] resonance energy transfer (RET) between the donor and the acceptor, but as the NS3 protease cleaves the peptide the products are released from RET quenching and the fluorescence of the donor becomes apparent. The assay reagent was made as follows: 5× cell Luciferase cell culture lysis reagent from Promega (#E153A) diluted to 1× with dH2O, NaCl added to 150 mM final, the FRET peptide diluted to 20 μM final from a 2 mM stock.
To prepare plates, HCV replicon cells, with or without a Renilla luciferase reporter gene, were trypsinized and plated in a 96-well plate with titrated test compounds added in columns 3 through 12; columns 1 and 2 contained a control compound (HCV control inhibitor), and the bottom row contained cells with DMSO only. The plates were then placed in a CO2 incubator at 37° C.
Assays. Subsequent to addition of the test compounds described above (FRET Assay Preparation), at various times the plate was removed and Alamar blue solution (Trek Diagnostics, #00-100) was added to measure cellular toxicity. After reading in a Cytoflour 4000 instrument (PE Biosystems), plates were rinsed with PBS and then used for FRET assay by the addition of 30 ul of the FRET peptide assay reagent described above (FRET Assay Preparation) per well. The plate was then placed into the Cytoflour 4000 instrument which had been set to 340 excite/490 emission, automatic mode for up to 20 cycles and the plate read in a kinetic mode. Typically, the signal to noise using an endpoint analysis after the reads was at least three-fold. Alternatively, after Alamar blue reading, plates were rinsed with PBS, then used for luciferase assay using the Promega Dual-Glo Luciferase Assay System or the Promega EnduRen Live Cell Substrate assay.
Compound analysis was performed by quantification of the relative HCV replicon inhibition and the relative cytotoxicity values. To calculate cytoxicity values, the average Alamar Blue fluorescence signals from the control wells were set as 100% non-toxic. The individual signals in each of the compound test wells were then divided by the average control signal and multiplied by 100% to determine […]. To calculate the HCV replicon inhibition values, an average background value was obtained from the two wells containing the highest amount of HCV control inhibitor at the end of the assay period. These numbers were similar to those obtained from naïve Huh-7 cells. The background numbers were then subtracted from the average signal obtained from the control wells and this number was used as 100% activity. The individual signals in each of the compound test wells were then divided by the averaged control values after background subtraction and multiplied by 100% to determine percent activity. EC50 values were calculated as the concentration which caused a 50% reduction in FRET or luciferase activity. The two numbers generated for the compound plate, percent cytoxicity and percent activity, were used to determine compounds of interest for further analysis.

T1 sequence (Q9WMX2 2420-2992): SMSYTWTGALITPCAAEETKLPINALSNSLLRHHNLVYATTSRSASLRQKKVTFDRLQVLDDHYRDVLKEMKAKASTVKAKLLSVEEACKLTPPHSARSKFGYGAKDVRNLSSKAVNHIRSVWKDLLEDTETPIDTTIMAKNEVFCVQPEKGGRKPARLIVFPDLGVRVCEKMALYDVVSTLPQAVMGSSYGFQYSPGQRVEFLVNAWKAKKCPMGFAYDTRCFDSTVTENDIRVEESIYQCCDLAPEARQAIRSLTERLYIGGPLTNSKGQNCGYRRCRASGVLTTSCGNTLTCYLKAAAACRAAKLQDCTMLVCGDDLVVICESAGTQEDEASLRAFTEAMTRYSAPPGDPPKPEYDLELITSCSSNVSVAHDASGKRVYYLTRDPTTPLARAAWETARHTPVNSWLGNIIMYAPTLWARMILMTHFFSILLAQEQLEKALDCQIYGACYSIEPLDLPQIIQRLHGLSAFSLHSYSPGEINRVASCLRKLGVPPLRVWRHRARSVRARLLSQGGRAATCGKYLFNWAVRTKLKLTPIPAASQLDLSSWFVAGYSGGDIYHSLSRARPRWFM

Compound	IC50 [1]	EC50 [2]
COc1ccc2c(c1)C1CC1(C(=O)N1C3CCC1CN(C)C3)Cn1c-2c(C2CCCCC2)c2ccc(C(=O)NC(C)(C)C(=O)N(C)C)cc21 (stereo not drawn)	4.2 to 500 nM	4.2 to 500 nM
COc1ccc2c(c1)C1CC1(C(=O)N1C3CCC1CN(C)C3)Cn1c-2c(C2CCCCC2)c2ccc(C(=O)NS(=O)(=O)C3(Cc4ccccc4)CC3)cc21 (stereo not drawn)	4.2 to 500 nM	4.2 to 500 nM
CCC#CCC1(S(=O)(=O)NC(=O)c2ccc3c(C4CCCCC4)c4n(c3c2)CC2(C(=O)N3C5CCC3CN(C)C5)CC2c2cc(OC)ccc2-4)CC1 (stereo not drawn)	4.2 to 500 nM	4.2 to 500 nM
COc1ccc2c(c1)C1CC1(C(=O)N1C3CCC1CN(C)C3)Cn1c-2c(C2CCCCC2)c2ccc(C(=O)NS(=O)(=O)C3([Si](C)(C)C)CC3)cc21 (stereo not drawn)	4.2 to 500 nM	4.2 to 500 nM
COc1ccc2c(c1)C1CC1(C(=O)N1C3CCC1CN(C)C3)Cn1c-2c(C2CCCCC2)c2ccc(C(=O)NS(=O)(=O)C3(C(=O)c4ccccc4)CC3)cc21 (stereo not drawn)	4.2 to 500 nM	4.2 to 500 nM
COc1ccc2c(c1)C1CC1(C(=O)N1C3CCC1CN(C)C3)Cn1c-2c(C2CCCCC2)c2ccc(C(=O)NS(=O)(=O)c3ccccc3C#N)cc21 (stereo not drawn)	4.2 to 500 nM	4.2 to 500 nM
COCCS(=O)(=O)NC(=O)c1ccc2c(C3CCCCC3)c3n(c2c1)CC1(C(=O)N2C4CCC2CN(C)C4)CC1c1cc(OC)ccc1-3 (stereo not drawn)	4.2 to 500 nM	4.2 to 500 nM
COc1ccc2c(c1)C1CC1(C(=O)N1C3CCC1CN(C)C3)Cn1c-2c(C2CCCCC2)c2ccc(C(=O)NS(=O)(=O)c3ccco3)cc21 (stereo not drawn)	4.2 to 500 nM	4.2 to 500 nM
COc1ccc2c(c1)C1CC1(C(=O)N1C3CCC1CN(C)C3)Cn1c-2c(C2CCCCC2)c2ccc(C(=O)NS(=O)(=O)C3(C(=O)Nc4ccccc4)CC3)cc21 (stereo not drawn)	4.2 to 500 nM	4.2 to 500 nM
COc1ccc2c(c1)C1CC1(C(=O)N1C3CCC1CN(C)C3)Cn1c-2c(C2CCCCC2)c2ccc(C(=O)NS(=O)(=O)c3c(C)noc3C)cc21 (stereo not drawn)	4.2 to 500 nM	4.2 to 500 nM
COc1ccc2c(c1)C1CC1(C(=O)N1C3CCC1CN(C)C3)Cn1c-2c(C2CCCCC2)c2ccc(C(=O)NS(=O)(=O)c3cn(C)cn3)cc21 (stereo not drawn)	4.2 to 500 nM	4.2 to 500 nM
COc1ccc2c(c1)C1CC1(C(=O)N1C3CCC1CN(C)C3)Cn1c-2c(C2CCCCC2)c2ccc(C(=O)NS(=O)(=O)c3ccc(C)cn3)cc21 (stereo not drawn)	4.2 to 500 nM	4.2 to 500 nM
COc1ccc2c(c1)C1CC1(C(=O)N1C3CCC1CN(C)C3)Cn1c-2c(C2CCCCC2)c2ccc(C(=O)NS(=O)(=O)c3ccccc3)cc21 (stereo not drawn)	4.2 to 500 nM	4.2 to 500 nM
COc1ccc2c(c1)C1CC1(C(=O)N1C3CCC1CN(C)C3)Cn1c-2c(C2CCCCC2)c2ccc(C(=O)NS(=O)(=O)c3cnccc3Cl)cc21 (stereo not drawn)	4.2 to 500 nM	4.2 to 500 nM
C=CCC1(S(=O)(=O)NC(=O)c2ccc3c(C4CCCCC4)c4n(c3c2)CC2(C(=O)N3C5CCC3CN(C)C5)CC2c2cc(OC)ccc2-4)CC1 (stereo not drawn)	4.2 to 500 nM	4.2 to 500 nM
COc1ccc2c(c1)C1CC1(C(=O)N1C3CCC1CN(C)C3)Cn1c-2c(C2CCCCC2)c2ccc(C(=O)NS(=O)(=O)c3cccs3)cc21 (stereo not drawn)	4.2 to 500 nM	4.2 to 500 nM
COc1ccc2c(c1)C1CC1(C(=O)N1C3CCC1CN(C)C3)Cn1c-2c(C2CCCCC2)c2ccc(C(=O)NS(=O)(=O)CC3CCCO3)cc21 (stereo not drawn)	4.2 to 500 nM	4.2 to 500 nM
COc1ccc2c(c1)C1CC1(C(=O)N1C3CCC1CN(C)C3)Cn1c-2c(C2CCCCC2)c2ccc(C(=O)NS(=O)(=O)C3CCOCC3)cc21 (stereo not drawn)	4.2 to 500 nM	4.2 to 500 nM
COc1ccc2c(c1)C1CC1(C(=O)N1C3CCC1CN(C)C3)Cn1c-2c(C2CCCCC2)c2ccc(C(=O)NS(=O)(=O)Cc3ccccc3)cc21 (stereo not drawn)	4.2 to 500 nM	4.2 to 500 nM
COc1ccc2c(c1)C1CC1(C(=O)N1C3CCC1CN(C)C3)Cn1c-2c(C2CCCCC2)c2ccc(C(=O)NS(=O)(=O)N3CCCO3)cc21 (stereo not drawn)	4.2 to 500 nM	< 70 nM
COc1ccc2c(c1)C1CC1(C(=O)N1C3CCC1CN(C)C3)Cn1c-2c(C2CCCCC2)c2ccc(C(=O)NS(=O)(=O)c3ccc(C)cc3OC)cc21 (stereo not drawn)	4.2 to 500 nM	4.2 to 500 nM
COc1ccc2c(c1)C1CC1(C(=O)N1C3CCC1CN(C)C3)Cn1c-2c(C2CCCCC2)c2ccc(C(=O)NS(=O)(=O)c3nc(C(C)(C)C)cs3)cc21 (stereo not drawn)	4.2 to 500 nM	4.2 to 500 nM
COc1ccc2c(c1)C1CC1(C(=O)N1C3CCC1CN(C)C3)Cn1c-2c(C2CCCCC2)c2ccc(C(=O)NS(=O)(=O)C3(C)CC3)cc21 (stereo not drawn)	4.2 to 500 nM	4.2 to 500 nM
C=C(C)S(=O)(=O)NC(=O)c1ccc2c(C3CCCCC3)c3n(c2c1)CC1(C(=O)N2C4CCC2CN(C)C4)CC1c1cc(OC)ccc1-3 (stereo not drawn)	4.2 to 500 nM	4.2 to 500 nM
